Data on two compounds can be found in US12012404B2, “Pyrimidoheterocyclic compounds and application thereof” (D3 BIO (WUXI) CO., LTD., priority 2020, dated 2024).

Like-named read-outs stand apart in the source and are kept apart here.

Data set [1] is described as follows: Stability assay in plasma, CD-1 mice. It counts as in vitro ADME. The following applies: CD-1 mice plasma, 2 μM, 37° C. The method, then: (§1) Purpose of the assay: Stabilities of the assay compounds in plasma of CD-1 mice and human were assayed, respectively.
(§2) Procedure of the assay: Cryopreserved plasma was thawed for 10-20 min. After the plasma was completely thawed, it was placed in a centrifuge and centrifuged at 3220×g for 5 min to remove any suspended matter and sediment in the plasma. 96-well incubation plates were prepared and named TO, T10, T30, T60, T120, respectively. 98 μL of blank plasmas of mouse, rat, canine, monkey and human were added to the corresponding incubation plates, then 2 μL of working solutions of the compound or the control compound were added to the corresponding plates in duplicate. All samples were incubated in a 37° C. water bath. The final incubation concentrations of the compound and the control compounds bisacodyl, enalapril maleate, procaine and probanthine were 2 μM, and the final organic phase content was 2.0%. At the end of incubation for each time point, the corresponding incubation plate was removed and 400 μL of a solution of 200 ng/mL of tolbutamide and labetalol in acetonitrile was added to each corresponding sample well to precipitate the protein. All sample plates were sealed and shaken well, and then centrifuged at 3220×g for 20 minutes. 50 μL of supernatant was taken out and diluted in 100 μL of ultrapure water. All samples were mixed well and then analyzed by LC/MS/MS.

Data set [2] in a line: Stability assay in plasma, human. It counts as in vitro ADME. Conditions: 2 μM, 37° C. The method, then: as §1, §2
Data set [3] deals with plasma protein of SD rats. Nature of the data set: Protein binding rate by equilibrium dialysis, SD rats plasma. The following applies: for Protein unbound rate: SD rats plasma, 2 μM, dialysis 4 hours. It counts as in vitro ADME. As for the experimental part: (§3) Purpose of the assay: Protein binding rate of the assay compounds in plasma of CD-1 mice, SD rats, beagle dogs, cynomolgus monkeys and human was determined by equilibrium dialysis.
(§4) Procedure of the assay: Plasma samples with a compound concentration of 2 μM were prepared using plasma of the above five species, placed in a 96-well equilibrium dialysis device, and dialyzed with phosphate buffer solution at 37±1° C. for 4 hours. Warfarin was used as the control compound in this assay. The concentrations of the assay compounds in plasma and dialysis buffer were determined by LC-MS/MS method.

For another data set, the system named is plasma protein of human. Nature of the data set: Protein binding rate by equilibrium dialysis, human plasma. It counts as in vitro ADME. Conditions: 2 μM, dialysis 4 hours. As for the experimental part:
as §3, §4

A short description of data set [4]: Pharmacokinetics by oral administration and intravenous injection in SD rats. It is filed as in vivo. The following applies: for AUCu: AUC0-last × PPB(Unbound %); for Peak concentration, Cmax, u: Cmax × PPB(Unbound %); for Cmax: read-out: Peak concentration, Cmax; for Vd: SD, iv, 2 mg/kg. The method, then:
1) Assay on the Pharmacokinetics of the Assay Compounds by Oral Administration and Intravenous Injection in SD Rats
The assay compound was mixed with […] (10% hydroxypropyl-β-cyclodextrin) solution. The mixture was vortexed and sonicated to prepare a 1 mg/mL clear solution, which was filtered through a microporous membrane for later use. Male SD rats aged 7 to 10 weeks were selected, and administered candidate compound solutions intravenously or orally. Whole blood was collected for a certain period of time, and prepared to obtain plasma. Drug concentration was analyzed by LC-MS/MS method, and pharmacokinetic parameters were calculated by Phoenix WinNonlin software (Pharsight, USA).

Data set [5] relates to human pancreatic cancer Mia PaCa-2 cells. Nature of the data set: Pharmacodynamics in vivo in subcutaneously transplanted tumor model of Mia PaCa-2 cells. The following applies: day 22 of administration. Set-up: species or system Balb/c Nude mice. The method, then: Assay on pharmacodynamics in vivo in a subcutaneously transplanted tumor model of human pancreatic cancer Mia PaCa-2 cells in Balb/c Nude mice
Cell culture: Human pancreatic cancer Mia PaCa-2 cells (ATCC-CRL-1420) were cultured in monolayer in vitro in DMEM medium with 10% fetal calf serum and 2.5% horse serum in a 37° C., 5% carbon dioxide incubator. Cells were passaged by routine digestion with trypsin-EDTA twice a week. When the cell saturation reached 80%-90% and the cell number met the requirement, the cells were harvested, counted, and resuspended in an appropriate amount of PBS. Matrigel was added in a ratio of 1:1 to obtain a cell suspension with a cell density of 25×10^6 cells/mL.
Cell inoculation: 0.2 mL (5×10^6 cells/mouse) of Mia PaCa-2 cells (plus Matrigel, 1:1 by volume) were subcutaneously inoculated into the right back of each mouse. When the average tumor volume reached 190 mm^3, mice were randomized into groups based on tumor volume and administration was initiated according to the protocol in Table 10.
Tumor diameter was measured with vernier caliper twice a week. The calculation formula of tumor volume was: V=0.5a×b^2, where a and b represent the long and short diameters of the tumor, respectively.
The anti-tumor efficacy of compounds was evaluated by TGI (%) or relative tumor proliferation rate T/C (%). Relative tumor proliferation rate T/C (%)=TRTV/CRTV×100% (TRTV: RTV in a treatment group; CRTV: RTV in a negative control group). The relative tumor volume (RTV) was calculated according to results of tumor measurement, and the calculation formula was RTV=Vt/VO, where VO was average tumor volume measured at the time of administration by group (i.e., DO), and Vt was average tumor volume at the time of a certain measurement. For TRTV and CRTV, data on the same day were used.
TGI (%) reflected tumor growth inhibition rate. TGI (%)=[(1−(average tumor volume at the end of administration of a treatment group−average tumor volume at the beginning of administration of the treatment group))/(average tumor volume at the end of treatment of a vehicle control group−average tumor volume at the beginning of treatment of the vehicle control group)]×100%.

Where [6] appears, read: intravenous injection, 2.0 mg/kg.
The mark [7] stands for this setting: oral, 9.7 mg/kg (8B), 9.8 mg/kg (17).
Setting [8] is: male, rat, plasma, oral, 9.7 mg/kg (8B), 9.8 mg/kg (17).

For the compound `C=C(F)C(=O)N1CCN(c2nc(OCC3CCCN3C)nc3c2COC(c2c(F)c(N)cc(C)c2C(F)(F)F)C3)CC1CC#N.Cl` (single isomer, unassigned) [Compound 8B hydrochloride], the “Detection of assay compound content within 120 min” value (“Detection” below) in data set [1] turned out to be 110%. Also, the “Detection” value in data set [2] is recorded as 114%. Also, the Protein unbound rate in data set [3] turned out to be 9.8. Further, the “Plasma protein unbound rate PPB (Unbound %)” value in data set [3] (SD rats, as listed in PK Table 8) is 9.8%. Moreover, the Protein unbound rate in the data set on plasma protein of human amounted to 10.6. Moreover, in data set [4] (setting [6]), the AUC0-last was determined as 0.544 µM·h; the “Apparent volume of distribution, Vdss” value was 17.9 L/kg; the “Clearance rate, CL” value worked out at 85.2 mL/min/kg; the “Half-life period, T1/2” value amounted to 2.8 h. In data set [4] (setting [6]), the AUCu came out at 0.0533 µM·h. Further, the “Apparent volume of distribution, Vdss, u” value in data set [4] (intravenous injection, 2.0 mg/kg, Vdss/PPB(Unbound %)) is on record as 203 L/kg. Moreover, in data set [4] (setting [7]), the AUC0-last came to 1.211 µM·h; the “Bioavailability F” value worked out at 44.5%; the “Time-to-peak, Tmax” value is on record as 1.5 h; the AUCu is 0.119 µM·h. Also, in data set [4] (setting [7]), the “Peak concentration, Cmax, u” value is recorded as 21.3 nM and the Cmax came out at 218 nM. Besides, in data set [5] (10 mg/kg PO QD), the Average tumor volume is on record as 745.84 mm^3, the T/C is listed as 36.99% and the TGI was 66.89%. In data set [5] (30 mg/kg PO QD), this compound gave an Average tumor volume of 227.15 mm^3, a T/C of 11.28% and an inhibition of tumour growth (TGI) of 94.23%.

For `C=C(F)C(=O)N1CCN(c2nc(OC[C@@]34CCCN3C[C@H](F)C4)nc3c2COC(c2c(F)c(N)cc(C)c2C(F)(F)F)C3)C[C@@H]1CC#N` (stereo partly drawn) [Compound 17], the “Detection” value in data set [1] was found to be 94%; in data set [2] it was 93%. For the same compound, the Protein unbound rate (in data set [3]; in the data set with plasma protein of human) was 4.8 throughout. Besides, the AUCu was 0.0313 µM·h in data set [4] (setting [6]) and 0.0478 µM·h in data set [4] (setting [7]). Further, the Vd in data set [4] (male, rat, plasma, intravenous injection, 2.0 mg/kg, Vdss/PPB(Unbound %), read-out: Apparent volume of distribution, Vdss, u) is 221 L/kg; in data set [4] (male, rat, plasma, intravenous injection, 2.0 mg/kg, read-out: Apparent volume of distribution, Vdss) it was 10.6 L/kg. The AUC(0-t) worked out at 0.653 µM·h in data set [4] (male, rat, plasma, intravenous injection, 2.0 mg/kg) and 0.995 µM·h in data set [4] (setting [8]). In data set [4] (male, rat, plasma, intravenous injection, 2.0 mg/kg, read-out: Clearance rate, CL), the clearance amounted to 71.5 mL/min/kg. The half-life in data set [4] (male, rat, plasma, intravenous injection, 2.0 mg/kg, read-out: Half-life period, T1/2 (converted)) is 1.9 h. The bioavailability in data set [4] (male, rat, plasma, oral, 9.7 mg/kg (8B), 9.8 mg/kg (17), read-out: Bioavailability F) came to 30.5%. Moreover, the Cmax in data set [4] (setting [8]) is 220 nM. The Tmax in data set [4] (male, rat, plasma, oral, 9.7 mg/kg (8B), 9.8 mg/kg (17), read-out: Time-to-peak, Tmax) was 1.5 h. Besides, the “Peak concentration, Cmax, u” value in data set [4] (setting [7]) was 10.6 nM. For the same compound, the Average tumor volume in data set [5] (10 mg/kg PO QD) turned out to be 249.87 mm^3; in data set [5] (30 mg/kg PO QD) it was 124.14 mm^3. Further, the T/C in data set [5] (10 mg/kg PO QD) amounted to 12.39%; in data set [5] (30 mg/kg PO QD), 6.16%. Also, the results for the TGI in data set [5] (10 mg/kg PO QD) and in data set [5] (30 mg/kg PO QD) were 93.06% and 99.64%, respectively.
